From patent US9789146B1, “Synthesis of adansonia digitata nanoparticles” (KING SAUD UNIVERSITY, priority 2017, dated 2017)

Columns and labels:
Experiment in all cases: Antimicrobial activity, diffusion agar technique
Assay type in all cases: cell-based
Conditions in all cases: well diameter 6.0 mm, 100 μl tested
[1] = system: Bacillis subtilis (RCMB 010068)
Experimental: (§1) The antimicrobial effect of the Adansonia digitata nanoparticles was evaluated against different gram positive and gram negative bacteria as well as fungi. The test was done using the diffusion agar technique and the well diameter was 6.0 mm (100 μl was tested). The mean zone of inhibition in mm±Standard deviation beyond well diameter (6 mm) produced on a range of environmental and clinically pathogenic microorganisms.

[2] = system: Streptococcus pneumoniae (RCMB 010011)
Experimental: as §1

[3] = system: Escherichia coli (RCMB 010054)
Experimental: as §1

[4] = system: Aspergillus fumigatus (RCMB 02567)
Experimental: as §1

In the case of `CC1(C)S[C@@H]2[C@H](NC(=O)[C@H](N)c3ccccc3)C(=O)N2[C@H]1C(=O)O` [Ampicillin], the “mean zone of inhibition ± Standard deviation beyond well diameter” value [1] is reported as 31.3 ± 1.5 mm and the “mean zone of inhibition ± Standard deviation beyond well diameter” value [2] is reported as 21.0 ± 1.0 mm.
In the case of Gentamicin, the “mean zone of inhibition ± Standard deviation beyond well diameter” value [3] is reported as 20.3 ± 0.58 mm.
`C[C@@H]1[C@H](O)[C@@H](C)/C=C/C=C/C=C/C=C/C=C/C=C/C=C/[C@H](O[C@@H]2O[C@H](C)[C@@H](O)[C@H](N)[C@@H]2O)C[C@@H]2O[C@](O)(C[C@@H](O)C[C@@H](O)[C@H](O)CC[C@@H](O)C[C@@H](O)CC(=O)O[C@H]1C)C[C@H](O)[C@H]2C(=O)O` [Amphotericin B] was tested, and the “mean zone of inhibition ± Standard deviation beyond well diameter” value [4] was 21.7 ± 1.5 mm.
